Assay results: ChEMBL document CHEMBL3885881, “DrugMatrix”

Organism: Rattus norvegicus
Experiment: DrugMatrix - Regimen: Daily Repeat
Assay type: toxicity, organism-based, Sprague-Dawley
Set-up: regimen Daily Repeat, gender Male, age 6-8 weeks
Details: in vivo, po, route oral GAVAGE, […]; for ABSOLUTE BASOPHIL / ABSOLUTE EOSINOPHIL / ABSOLUTE LYMPHOCYTE / ABSOLUTE MONOCYTE / ABSOLUTE SEGMENTED NEUTROPHIL / BASOPHIL / EOSINOPHIL / ERYTHROCYTE COUNT / HEMATOCRIT / HEMOGLOBIN / LEUKOCYTE COUNT / LYMPHOCYTE / MEAN CORPUSCULAR HEMOGLOBIN / MEAN CORPUSCULAR HEMOGLOBIN CONCENTRATION / MEAN CORPUSCULAR VOLUME / MONOCYTE / NEUTROPHIL / NUCLEATED RED BLOOD CELLS / PLATELET COUNT: tissue Blood; for ALANINE AMINOTRANSFERASE / ALBUMIN / ALKALINE PHOSPHATASE / ASPARTATE AMINOTRANSFERASE / BLOOD UREA NITROGEN / CARBON DIOXIDE / CHLORIDE / CHOLESTEROL / CREATINE PHOSPHOKINASE / CREATININE / GLUCOSE / LACTATE DEHYDROGENASE / LIPASE / PHOSPHORUS / POTASSIUM / SODIUM / TOTAL BILIRUBIN / TOTAL PROTEIN / URIC ACID: tissue Plasma
[1] = 0 mg/kg, 72 h, dose level Control, time 3 day
[2] = 0 mg/kg, dose level Control, time 7 day
[3] = 130 mg/kg, 72 h, dose level Low, time 3 day

CCOC(=O)C(C)(C)Oc1ccc(Cl)cc1 [CLOFIBRATE]
ABSOLUTE BASOPHIL [1]: 0 CELLS/uL
ABSOLUTE EOSINOPHIL [1]: 37.33 CELLS/uL
ABSOLUTE LYMPHOCYTE [1]: 6295.33 CELLS/uL
ABSOLUTE MONOCYTE [1]: 122.17 CELLS/uL
ABSOLUTE SEGMENTED NEUTROPHIL [1]: 861.83 CELLS/uL
BASOPHIL [1]: 0%
EOSINOPHIL [1]: 0.5%
ERYTHROCYTE COUNT [1]: 5.2 x10E6/uL
HEMATOCRIT [1]: 32.58%
HEMOGLOBIN [1]: 12.95 G/DL
LEUKOCYTE COUNT [1]: 7.32 x10E3/uL
LYMPHOCYTE [1]: 86%
MEAN CORPUSCULAR HEMOGLOBIN [1]: 24.93 pg
MEAN CORPUSCULAR HEMOGLOBIN CONCENTRATION [1]: 39.77 G/DL
MEAN CORPUSCULAR VOLUME [1]: 62.65 fL
MONOCYTE [1]: 1.67%
NEUTROPHIL [1]: 11.83%
NUCLEATED RED BLOOD CELLS [1]: 0 /100WBC
PLATELET COUNT [1]: 1029 x10E3/uL
ALANINE AMINOTRANSFERASE [1]: 63.67 u/L
ALBUMIN [1]: 4.12 G/DL
ALKALINE PHOSPHATASE [1]: 329.83 u/L
ASPARTATE AMINOTRANSFERASE [1]: 77.67 u/L
BLOOD UREA NITROGEN [1]: 18 mg/dL
CARBON DIOXIDE [1]: 29.67 mmol/L
CHLORIDE [1]: 102.67 MEQ/L
CHOLESTEROL [1]: 64.5 mg/dL
CREATINE PHOSPHOKINASE [1]: 178.67 u/L
CREATININE [1]: 0.18 mg/dL
GLUCOSE [1]: 163.83 mg/dL
LACTATE DEHYDROGENASE [1]: 75.83 u/L
LIPASE [1]: 10 u/L
PHOSPHORUS [1]: 8.28 mg/dL
POTASSIUM [1]: 4.79 MEQ/L
SODIUM [1]: 142.22 MEQ/L
TOTAL BILIRUBIN [1]: 0.22 mg/dL
TOTAL PROTEIN [1]: 5.78 G/DL
URIC ACID [1]: 0.87 mg/dL
ABSOLUTE BASOPHIL [2]: 0 CELLS/uL
ABSOLUTE EOSINOPHIL [2]: 19 CELLS/uL
ABSOLUTE LYMPHOCYTE [2]: 7803.5 CELLS/uL
ABSOLUTE MONOCYTE [2]: 117.83 CELLS/uL
ABSOLUTE SEGMENTED NEUTROPHIL [2]: 1093 CELLS/uL
BASOPHIL [2]: 0%
EOSINOPHIL [2]: 0.17%
ERYTHROCYTE COUNT [2]: 5.84 x10E6/uL
HEMATOCRIT [2]: 35.75%
HEMOGLOBIN [2]: 13.87 G/DL
LEUKOCYTE COUNT [2]: 9.03 x10E3/uL
LYMPHOCYTE [2]: 87.17%
MEAN CORPUSCULAR HEMOGLOBIN [2]: 23.78 pg
MEAN CORPUSCULAR HEMOGLOBIN CONCENTRATION [2]: 38.8 G/DL
MEAN CORPUSCULAR VOLUME [2]: 61.25 fL
MONOCYTE [2]: 1.17%
NEUTROPHIL [2]: 11.5%
NUCLEATED RED BLOOD CELLS [2]: 0 /100WBC
PLATELET COUNT [2]: 1098.67 x10E3/uL
ALANINE AMINOTRANSFERASE [2]: 66 u/L
ALBUMIN [2]: 4.3 G/DL
ALKALINE PHOSPHATASE [2]: 291.83 u/L
ASPARTATE AMINOTRANSFERASE [2]: 80.5 u/L
BLOOD UREA NITROGEN [2]: 15.67 mg/dL
CARBON DIOXIDE [2]: 30 mmol/L
CHLORIDE [2]: 101.67 MEQ/L
CHOLESTEROL [2]: 69.67 mg/dL
CREATINE PHOSPHOKINASE [2]: 363.33 u/L
CREATININE [2]: 0.25 mg/dL
GLUCOSE [2]: 146.5 mg/dL
LACTATE DEHYDROGENASE [2]: 219.67 u/L
LIPASE [2]: 11.33 u/L
PHOSPHORUS [2]: 10.08 mg/dL
POTASSIUM [2]: 5.22 MEQ/L
SODIUM [2]: 144.67 MEQ/L
TOTAL BILIRUBIN [2]: 0.12 mg/dL
TOTAL PROTEIN [2]: 6.33 G/DL
URIC ACID [2]: 0.75 mg/dL
ABSOLUTE BASOPHIL [3]: 0 CELLS/uL
ABSOLUTE EOSINOPHIL [3]: 0 CELLS/uL
ABSOLUTE LYMPHOCYTE [3]: 6441.67 CELLS/uL
ABSOLUTE MONOCYTE [3]: 98 CELLS/uL
ABSOLUTE SEGMENTED NEUTROPHIL [3]: 743.67 CELLS/uL
BASOPHIL [3]: 0%
EOSINOPHIL [3]: 0%
ERYTHROCYTE COUNT [3]: 5.19 x10E6/uL
HEMATOCRIT [3]: 32.77%
HEMOGLOBIN [3]: 13.27 G/DL
LEUKOCYTE COUNT [3]: 7.28 x10E3/uL
LYMPHOCYTE [3]: 88.83%
MEAN CORPUSCULAR HEMOGLOBIN [3]: 25.65 pg
MEAN CORPUSCULAR HEMOGLOBIN CONCENTRATION [3]: 40.57 G/DL
MEAN CORPUSCULAR VOLUME [3]: 63.17 fL
MONOCYTE [3]: 1.33%
NEUTROPHIL [3]: 9.83%
NUCLEATED RED BLOOD CELLS [3]: 0 /100WBC
PLATELET COUNT [3]: 1091.67 x10E3/uL
ALANINE AMINOTRANSFERASE [3]: 69.83 u/L
ALBUMIN [3]: 4.22 G/DL
ALKALINE PHOSPHATASE [3]: 373.67 u/L
ASPARTATE AMINOTRANSFERASE [3]: 86 u/L
BLOOD UREA NITROGEN [3]: 16.5 mg/dL
CARBON DIOXIDE [3]: 30.17 mmol/L
CHLORIDE [3]: 101.83 MEQ/L
CHOLESTEROL [3]: 48.17 mg/dL
CREATINE PHOSPHOKINASE [3]: 463.67 u/L
CREATININE [3]: 0.14 mg/dL
GLUCOSE [3]: 170.83 mg/dL
LACTATE DEHYDROGENASE [3]: 85.33 u/L
LIPASE [3]: 9.67 u/L
PHOSPHORUS [3]: 8.43 mg/dL
POTASSIUM [3]: 5.04 MEQ/L
SODIUM [3]: 142.75 MEQ/L
TOTAL BILIRUBIN [3]: 0.18 mg/dL
TOTAL PROTEIN [3]: 5.87 G/DL
URIC ACID [3]: 0.93 mg/dL
